Values quoted from earlier work in patent publication US20250356959A1, “Toxicity Prediction Of Compounds In Cellular Structures” (Sanofi, priority 2022, published 2025).

Test system: liver cells
Details: positive control, 60 micro moles

CN(C)CCCN1c2ccccc2Sc2ccc(Cl)cc21 [CPZ, Chlorpromazine]
known toxic effect of reference compound: toxic to liver cells and triggers cholestasis
